According to patent US8673938B2, “Chemical compounds” (priority 2006, dated 2014):

The compounds below were run against human 11βHSD1 enzyme (Homo sapiens (Human), UniProt P28845) (assay: biochemical). Conditions: read-out: % inhibition of human 11-βHSD.
human 11βHSD1 enzyme, sequence (P28845 whole entry): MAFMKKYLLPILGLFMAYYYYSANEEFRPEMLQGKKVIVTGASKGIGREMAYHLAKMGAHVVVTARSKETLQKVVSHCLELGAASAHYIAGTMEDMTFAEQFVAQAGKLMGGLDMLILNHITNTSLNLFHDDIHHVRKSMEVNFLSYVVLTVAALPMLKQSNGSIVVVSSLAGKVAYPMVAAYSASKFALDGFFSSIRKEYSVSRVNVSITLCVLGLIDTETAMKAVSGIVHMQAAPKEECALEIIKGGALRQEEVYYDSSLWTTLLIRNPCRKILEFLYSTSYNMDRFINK
Description: The evaluation of compounds described herein was carried out using a baculovirus expressed N terminal 6-His tagged full length human 11βHSD1 enzyme(*1). […] Inhibitors of 11βHSD1 reduce the conversion of cortisone to cortisol, which is identified by an increase in signal, in the above assay.
Compounds to be tested were dissolved in dimethyl sulphoxide (DMSO) to 10 mM and diluted further in assay buffer containing 1% DMSO to 10 fold the final assay concentration. Diluted compounds were then plated into black 384 well plates (Matrix, Hudson N.H., USA).
The assay plates were incubated for 25 minutes at 37° C. after which time the reaction was stopped by the addition of 10 μl of 0.5 mM glycerrhetinic acid plus conjugated cortisol (XL665 or D2). 10 μl of anti-cortisol Cryptate was then added and the plates sealed and incubated for 6 hours at room temperature.

**Q.** How did the inhibition at 30 µM turn out when `CCCSc1nc(N2CCC[C@@H](CC(=O)O)C2)ccc1C(=O)N(C(C)C)C1CCCCC1` [Example 124, 2-[(3S)-1-[5-(cyclohexyl-propan-2-yl-carbamoyl)-6-propylsulfanyl-pyridin-2-yl]-3-piperidyl]acetic acid] was run?
**A.** 92%

**Q.** Which inhibition at 30 µM does the source give for `CCCSc1nc(N2CCCC(C)(C(=O)O)C2)ccc1C(=O)NC1CCCCC1` (stereo not drawn) [Example 47, 1-[5-(cyclohexylcarbamoyl)-6-propylsulfanyl-pyridin-2-yl]-3-methyl-piperidine-3-carboxylic acid] here?
**A.** 90%

**Q.** For `O=C(O)C[C@@H]1CCCN(c2ccc(C(=O)N[C@H]3C4CC5CC3C[C@](OC(F)F)(C5)C4)c(SC3CCCC3)n2)C1` [Example 178, 2-[(3S)-1-[6-Cyclopentylsulfanyl-5-[[(2r,5s)-5-(difluoromethoxy)-2-adamantyl]carbamoyl]pyridin-2-yl]-3-piperidyl]acetic acid], which inhibition at 30 µM is on record?
**A.** 93%

**Q.** For `O=C(O)CO[C@@H]1CCN(c2ccc(C(=O)NC3C4CC5CC(C4)CC3C5)c(SC3CCCC3)n2)C1` (stereo partly drawn) [Example 70, 2-[(3R)-1-[5-(2-adamantylcarbamoyl)-6-cyclopentylsulfanyl-pyridin-2-yl]pyrrolidin-3-yl]oxyacetic acid], which inhibition at 30 µM is on record?
**A.** 95%

**Q.** `CCCSc1nc(N2CCCC(OCC(=O)O)C2)ccc1C(=O)NC1CCCCC1` (stereo not drawn) [Example 46] was tested. Which inhibition at 30 µM did it give?
**A.** 83%

**Q.** Which inhibition at 30 µM does the source give for `CCCSc1nc(N[C@H]2C3CC4CC2C[C@](C(=O)O)(C4)C3)ccc1C(=O)NC1CCCCC1` [Example 9, (3R,5S)-4-[[5-(cyclohexylcarbamoyl)-6-propylsulfanyl-pyridin-2-yl]amino]adamantane-1-carboxylic acid] here?
**A.** 92%

**Q.** For `O=C(O)C[C@H]1CCN(c2ccc(C(=O)N[C@H]3C4CC5CC3C[C@](O)(C5)C4)c(SC3CCCCC3)n2)C1` [Example 100, 2-[(3R)-1-[6-cyclohexylsulfanyl-5-[((2r,5s)-5-hydroxy-2-adamantyl)carbamoyl]pyridin-2-yl]pyrrolidin-3-yl]acetic acid], which inhibition at 30 µM is on record?
**A.** 92%

**Q.** For `CCCOc1nc(N2CCCC(C(C)(C)C(=O)O)C2)ccc1C(=O)N[C@H]1C2CC3CC1C[C@](O)(C3)C2` (stereo partly drawn) [Example 110, 2-[1-[5-[((2r,5s)-5-hydroxy-2-adamantyl)carbamoyl]-6-propoxy-pyridin-2-yl]-3-piperidyl]-2-methyl-propanoic acid], which inhibition at 30 µM is on record?
**A.** 95%

**Q.** How did the inhibition at 30 µM turn out when `CCCSc1nc(N2CCC(C3(C(=O)O)CC3)CC2)ccc1C(=O)NC1CCCCC1` [Example 50, 1-[1-[5-(cyclohexylcarbamoyl)-6-propylsulfanyl-pyridin-2-yl]-4-piperidyl]cyclopropane-1-carboxylic acid] was run?
**A.** 81%

**Q.** Which inhibition at 30 µM does the source give for `CC(C)CCSc1nc(N2CC[C@@H](C(=O)O)C2)ccc1C(=O)N[C@H]1C2CC3CC1C[C@@](O)(C3)C2` [Example 105] here?
**A.** 92%

**Q.** How did the inhibition at 30 µM turn out when `CCCSc1nc(N2CCCC(C(C)(C)C(=O)O)C2)ccc1C(=O)N[C@H]1C2CC3CC1C[C@](O)(C3)C2` (stereo partly drawn) [Example 92, 2-[1-[5-[((2r,5s)-5-hydroxy-2-adamantyl)carbamoyl]-6-propylsulfanyl-pyridin-2-yl]-3-piperidyl]-2-methyl-propanoic acid] was run?
**A.** 89%

**Q.** `CCSc1nc(N2CC[C@H](CC(=O)O)C2)ccc1C(=O)NC1C2CC3CC(C2)CC1C3` (stereo partly drawn) [Example 73, 2-[(3R)-1-[5-(2-adamantylcarbamoyl)-6-ethylsulfanyl-pyridin-2-yl]pyrrolidin-3-yl]acetic acid] was tested. Which inhibition at 30 µM did it give?
**A.** 92%

**Q.** How did the inhibition at 30 µM turn out when `O=C(O)C[C@H]1CCCN(c2ccc(C(=O)NC3CCCCC3)c(SC3CCCCC3)n2)C1` [Example 58, 2-[(3R)-1-[5-(cyclohexylcarbamoyl)-6-cyclohexylsulfanyl-pyridin-2-yl]-3-piperidyl]acetic acid] was run?
**A.** 83%

**Q.** With `O=C(O)C[C@@H]1CCCN(c2ccc(C(=O)N[C@H]3C4CC5CC3C[C@@](O)(C5)C4)c(SC3CCCC3)n2)C1` [Example 94] as the compound, how does the inhibition at 30 µM read?
**A.** 90%

**Q.** `CCCSc1nc(N2CCC[C@H](CC(=O)O)C2)c(F)cc1C(=O)NC1CCCCC1` [Example 187, (R)-2-(1-(5-(Cyclohexylcarbamoyl)-3-fluoro-6-(propylthio)pyridin-2-yl)piperidin-3-yl)acetic acid] was tested. Which inhibition at 30 µM did it give?
**A.** 90%

**Q.** How did the inhibition at 30 µM turn out when `CCCSc1nc(N2CCCC(OC(C)(C)C(=O)O)C2)ccc1C(=O)NC1CCCCC1` (stereo not drawn) [Example 45] was run?
**A.** 85%

**Q.** For `CCCSc1nc(Sc2ccc(CC(=O)O)cc2)ccc1C(=O)NC1CCCCC1` [Example 22, 2-[4-[5-(cyclohexylcarbamoyl)-6-propylsulfanyl-pyridin-2-yl]sulfanylphenyl]acetic acid], which inhibition at 30 µM is on record?
**A.** 65%

**Q.** How did the inhibition at 30 µM turn out when `CCCOc1nc(N2CCC[C@@H](CC(=O)O)C2)ccc1C(=O)N[C@H]1C2CC3CC1C[C@@](O)(C3)C2` [Example 109, 2-[(3S)-1-[5-[[(2r,5s)-5-hydroxy-2-adamantyl]carbamoyl]-6-propoxy-pyridin-2-yl]-3-piperidyl]acetic acid] was run?
**A.** 88%

**Q.** How did the inhibition at 30 µM turn out when `CCCSc1nc(N2CCC(C)(C(=O)O)CC2)ccc1C(=O)N[C@H]1C2CC3CC1C[C@@](O)(C3)C2` [Example 88, 1-[5-[[(2r,5s)-5-hydroxy-2-adamantyl]carbamoyl]-6-propylsulfanyl-pyridin-2-yl]-4-methyl-piperidine-4-carboxylic acid] was run?
**A.** 89%

**Q.** For `CCCSc1nc(N2CCC(CC(=O)O)CC2)ccc1C(=O)N[C@H]1C2CC3CC1C[C@@](O)(C3)C2` [Example 86, 2-[1-[5-[[(2r,5s)-5-hydroxy-2-adamantyl]carbamoyl]-6-propylsulfanyl-pyridin-2-yl]-4-piperidyl]acetic acid], which inhibition at 30 µM is on record?
**A.** 90%

**Q.** How did the inhibition at 30 µM turn out when `O=C(O)C[C@@H]1CCN(c2ccc(C(=O)N[C@H]3C4CC5CC3C[C@](OC(F)F)(C5)C4)c(SC3CCCCC3)n2)C1` [Example 175, 2-[(3S)-1-[6-Cyclohexylsulfanyl-5-[[(2r,5s)-5-(difluoromethoxy)-2-adamantyl]carbamoyl]pyridin-2-yl]pyrrolidin-3-yl]acetic acid] was run?
**A.** 91%

**Q.** `O=C(NC1CCCCC1)c1ccc(N2CCCC(C3(C(=O)O)CC3)C2)nc1SC1CCCC1` (stereo not drawn) [Example 56, 1-[1-[5-(cyclohexylcarbamoyl)-6-cyclopentylsulfanyl-pyridin-2-yl]-3-piperidyl]cyclopropane-1-carboxylic acid] was tested. Which inhibition at 30 µM did it give?
**A.** 97%

**Q.** Which inhibition at 30 µM does the source give for `CCCSc1nc(Oc2ccc(OCC(=O)O)cc2)ccc1C(=O)NC1CCCCC1` [Example 20, 2-[4-[5-(cyclohexylcarbamoyl)-6-propylsulfanyl-pyridin-2-yl]oxyphenoxy]acetic acid] here?
**A.** 89%

**Q.** `CCCSc1nc(N2CCC[C@H]2C(=O)O)ccc1C(=O)NC1CCCCC1` [Example 27, (2S)-1-[5-(cyclohexylcarbamoyl)-6-propylsulfanyl-pyridin-2-yl]pyrrolidine-2-carboxylic acid] was tested. Which inhibition at 30 µM did it give?
**A.** 94%

**Q.** Which inhibition at 30 µM does the source give for `CCCSc1nc(N2CCC[C@@H](CC(=O)O)C2)ccc1C(=O)N1CCC(C(N)=O)CC1` [Example 120, 2-[(3S)-1-[5-(4-carbamoylpiperidine-1-carbonyl)-6-propylsulfanyl-pyridin-2-yl]-3-piperidyl]acetic acid] here?
**A.** 104%

**Q.** With `CCCSc1nc(N2CCC[C@@H](CC(=O)O)C2)ccc1C(=O)N1CCCC(C(F)(F)F)C1` (stereo partly drawn) [Example 118, 2-[(3S)-1-[6-propylsulfanyl-5-[3-(trifluoromethyl)-piperidine-1-carbonyl]pyridin-2-yl]-3-piperidyl]acetic acid] as the compound, how does the inhibition at 30 µM read?
**A.** 101%

**Q.** With `CCCSc1nc(N2CCC[C@@H](CC(=O)O)C2)ccc1C(=O)N1CCC(c2cnccn2)C1` (stereo partly drawn) [Example 116, 2-[(3S)-1-[6-propylsulfanyl-5-(3-pyrazin-2-ylpyrrolidine-1-carbonyl)pyridin-2-yl]-3-piperidyl]acetic acid] as the compound, how does the inhibition at 30 µM read?
**A.** 89%

**Q.** Which inhibition at 30 µM does the source give for `CCCSc1nc(Oc2cccc(C(=O)O)c2)ccc1C(=O)NC1CCCCC1` [Example 13, 3-[5-(cyclohexylcarbamoyl)-6-propylsulfanyl-pyridin-2-yl]oxybenzoic acid] here?
**A.** 94%

**Q.** Which inhibition at 30 µM does the source give for `O=C(N[C@H]1C2CC3CC1C[C@](O)(C3)C2)c1ccc(N2CCC[C@H]2C(=O)O)nc1SC1CCCCC1` [Example 101, (2S)-1-[6-cyclohexylsulfanyl-5-[((2r,5s)-5-hydroxy-2-adamantyl)carbamoyl]pyridin-2-yl]pyrrolidine-2-carboxylic acid] here?
**A.** 100%

**Q.** `O=C(O)C[C@@H]1CCCN(c2ccc(C(=O)NC3CCCCC3)c(N3CCN(C(=O)c4ccc(F)cc4)CC3)n2)C1` [compound 146, 2-[(3S)-1-[5-(cyclohexyl-carbamoyl)-6-[4-(4-fluorobenzoyl)piperazin-1-yl]pyridin-2-yl]-3-piperidyl]acetic acid] was tested. Which inhibition at 30 µM did it give?
**A.** 58%

**Q.** How did the inhibition at 30 µM turn out when `CCCSc1nc(N2CC[C@@H](CC(=O)O)C2)ccc1C(=O)N[C@H]1C2CC3CC1C[C@](OC(F)F)(C3)C2` [Example 180, 2-[(3S)-1-[5-[[(2r,5s)-5-(Difluoromethoxy)-2-adamantyl]carbamoyl]-6-propylsulfanyl-pyridin-2-yl]pyrrolidin-3-yl]acetic acid] was run?
**A.** 95%

**Q.** How did the inhibition at 30 µM turn out when `CCCSc1nc(N2CCC(C)(C(=O)O)CC2)ccc1C(=O)NC1CCCCC1` [Example 32, 1-[5-(cyclohexylcarbamoyl)-6-propylsulfanyl-pyridin-2-yl]-4-methyl-piperidine-4-carboxylic acid] was run?
**A.** 89%

**Q.** For `CCCSc1nc(N2CCCC(C3(C(=O)O)CCC3)C2)ccc1C(=O)NC1CCCCC1` (stereo not drawn) [Example 41, 1-[1-[5-(cyclohexylcarbamoyl)-6-propylsulfanyl-pyridin-2-yl]-3-piperidyl]cyclobutane-1-carboxylic acid], which inhibition at 30 µM is on record?
**A.** 82%

**Q.** Which inhibition at 30 µM does the source give for `CCCSc1nc(Sc2ccc(C(=O)O)cc2)ccc1C(=O)NC1CCCCC1` [Example 15, 4-[5-(cyclohexylcarbamoyl)-6-propylsulfanyl-pyridin-2-yl]sulfanylbenzoic acid] here?
**A.** 73%

**Q.** `CCCSc1nc(N2CCC[C@@H](CC(=O)O)C2)ccc1C(=O)N1CCC(c2ccccn2)C1` (stereo partly drawn) [Example 114, 2-[(3S)-1-[6-propylsulfanyl-5-(3-pyridin-2-ylpyrrolidine-1-carbonyl)pyridin-2-yl]-3-piperidyl]acetic acid] was tested. Which inhibition at 30 µM did it give?
**A.** 101%

**Q.** `CCCSc1nc(N2CCC[C@@H](CC(=O)O)C2)ccc1C(=O)N(C)C1CCCCC1` [compound 169, 2-[(3S)-1-[5-(cyclohexyl-methyl-carbamoyl)-6-propylsulfanyl-pyridin-2-yl]-3-piperidyl]acetic acid] was tested. Which inhibition at 30 µM did it give?
**A.** 100%
